Assay results published in patent publication US7199114B2, “Triterpene quaternary salts as biologically active surfactants” (The Regents of the University of Minnesota, priority 2002, dated 2007).

Assays:
[1] = test system: dollar spot; assay: Antifungal treatment on turf grass plots (Example 84), dollar spot count; type: in vivo; conditions: 17.8 g/1000 sq. ft. (Daconil Ultrex 3.2 oz./1000 sq. ft.)
Experimental: (§1) Plots of creeping bentgrass, cv. “Pennlinks,” were treated with water based sprays of the test compounds. Sprays were delivered by CO2-charged sprayer to deliver the equivalent of 2 gallons of spray per 1000 sq. ft of plot area. Plots were 15 sq. ft. each, and treatments were mixed to apply material to 75 sq. ft (5 replicates), although only 4 replicates were treated. The quaternary salts of triterpenes were applied at 17.8 g/1000 sq. ft. for 14 days. Daconil Ultrex® was applied at 3.2 oz./1000 sq. ft. for 14 days. The experiment used a randomized complete block design, with 4 replicates per treatment. Disease pressure was high. Pennlinks […] is moderately to highly susceptible to both dollar spot and brown patch. For brown patch, caused by Rhozoctonia sofani. a visual estimate of the percent of the plot area affected was recorded. Turf quality was estimated on a 1 to 9 scale, with 1 being worst and 9 being perfect. A rating of 6 is considered acceptable.

[2] = test system: brown patch, caused by Rhozoctonia sofani; assay: Antifungal treatment on turf grass plots (Example 84), brown patch; type: in vivo; conditions: 17.8 g/1000 sq. ft. (Daconil Ultrex 3.2 oz./1000 sq. ft.)
Experimental: as §1

[3] = Antifungal treatment on turf grass plots (Example 84), turf quality; type: in vivo, creeping bentgrass, cv. Pennlinks; conditions: 1 to 9 scale, 9 perfect, 17.8 g/1000 sq. ft. (Daconil Ultrex 3.2 oz./1000 sq. ft.)
Experimental: as §1

[4] = Turf plot trial at Clemson University (Example 85), turf quality; type: in vivo, creeping bentgrass, cv. Pennlinks; conditions: 1 to 9 scale, 50 grams active ingredient per 1000 square feet
Experimental: (§2) Plots of creeping bentgrass, cv. “Pennlinks,” were treated with water based sprays of the test compounds. Sprays were delivered by CO2-charged sprayer to deliver the equivalent of 2 gallons of spray per 1000 sq. ft of plot area. Plots were 15 sq. ft. each, and treatments were mixed to apply material to 75 sq. ft (5 replicates), although only 4 replicates were treated. […] Daconil Ultrex® was applied at 3.2 oz./1000 sq. ft. for 14 days. The experiment used a randomized complete block design, with 4 replicates per treatment. Disease pressure was high. Pennlinks […] is moderately to highly susceptible to both dollar spot and brown patch. For brown patch, caused by Rhozoctonia sofani. a visual estimate of the percent of the plot area affected was recorded. Turf quality was estimated on a 1 to 9 scale, with 1 being worst and 9 being perfect. A rating of 6 is considered acceptable.
(§3) Plots of creeping bentgrass, cv. Pennlinks, were treated with water-based sprays as in Example 84 at Clemson University. Treatment application dates were May 7. May 14, May 28, and June 11. Plots were rated visually, estimating the percent of the area affected by dollar spot fungus […]. Turf quality was rated on a 1 to 9 scale, with 9 being perfect turf, as in Example 84. Disease pressure was moderately high to high when the trial was initiated, with existing dollar spot present.

[5] = test system: dollar spot fungus (Agrostis stolonifera); assay: Turf plot trial at Clemson University (Example 85), area affected by dollar spot; type: in vivo; conditions: 50 grams active ingredient per 1000 square feet
Experimental: as §2, §3

[6] = Table 2 experiment, Jul. 2, 2001
[7] = Table 2 experiment, Jul. 16, 2001
[8] = Table 2 experiment, Jun. 25, 2001
[9] = Table 3 experiment, Jul. 2, 2001
[10] = Table 3 experiment, Jul. 9, 2001
[11] = Table 3 experiment, Jul. 16, 2001
[12] = Table 3 experiment, Jun. 25, 2001
[13] = Table 2 experiment, Jul. 9, 2001

Row | SMILES | Dollar Spot # of spots per plot [1, 6] [spots per plot] | Dollar Spot # of spots per plot [1, 7] [spots per plot] | Dollar Spot # of spots per plot [1, 8] [spots per plot] | Dollar Spot # of spots per plot [1, 9] | Dollar Spot # of spots per plot [1, 10] [spots per plot] | Dollar Spot # of spots per plot [1, 11] [spots per plot] | Dollar Spot # of spots per plot [1, 12] [spots per plot] | Brown Patch % of plot infected [2, 6] [%] | Brown Patch % of plot infected [2, 13] [%] | Brown Patch % of plot infected [2, 7] [%] | Brown Patch % of plot infected [2, 8] [%] | Brown Patch % of plot infected [2, 9] [%] | Brown Patch % of plot infected [2, 10] | Brown Patch % of plot infected [2, 11] [%] | Brown Patch % of plot infected [2, 12] [%] | Turf quality [3, 6] | Turf quality [3, 13] | Turf quality [3, 7] | Turf quality [3, 8] | Turf quality [3, 9] | further results
1 | C=C(C)[C@@H]1CC[C@]2(COC(=O)C[n+]3ccccc3)CC[C@]3(C)C(CCC4[C@@]5(C)CC[C@H](OC(=O)C[n+]6ccccc6)C(C)(C)C5CC[C@]43C)C12.[Cl-].[Cl-] (some centres unmarked) [Compound 1, Lup-20(29)-ene3,28-bis-(N-pyridiniumacetate) dichloride] | 22.3 | 2.8 | 21.0 | suppressed dollar spot | 13.0 | 1.5 | 11.5 | 35.0 | 13.8 | 3.8 | 18.8 | 24.0 | 20.5% | 8.6 | 15.8 | 4.50 | 6.00 | 5.57 | 4.50 | 4.50 | Dollar Spot # of spots per plot ([1]; Table 3 experiment, Jul. 2, 2001, listed as Comp. 1): 15.8 spots per plot; Turf quality [3, 10]: 5.38; Turf quality [3, 12]: 4.88
2 | C=C(C)[C@@H]1CC[C@]2(COC(=O)C[N+](C)(C)CCN(C)C)CC[C@]3(C)C(CCC4[C@@]5(C)CC[C@H](OC(=O)C[N+](C)(C)CCN(C)C)C(C)(C)C5CC[C@]43C)C12.[Cl-].[Cl-] (some centres unmarked) [Compound 7, Lup-20(29)-ene-3,28-bis[(tetramethylethylenediamine-N-yl)acetate] dichloride] | 22.3 | 2.3 | 18.3 | 21.5 spots per plot | 14.5 | 2.0 | 14.8 | 20.5 | 20.0 | 3.8 | 24.5 | 25.5 | significantly suppress brown patch | 8.8 | 17.5 | 4.25 | 4.50 | 5.60 | 4.50 | 4.50 | Brown Patch % of plot infected ([2]; Table 3 experiment, Jul. 9, 2001, listed as Comp. 7): 10.8%; Turf quality [3, 10]: 5.88; Turf quality [3, 12]: 4.36
3 | C=C(C)[C@@H]1CC[C@]2(COC(=O)CC[n+]3ccccc3)CC[C@]3(C)C(CCC4[C@@]5(C)CC[C@H](OC(=O)CC[n+]6ccccc6)C(C)(C)C5CC[C@]43C)C12.[Cl-].[Cl-] (some centres unmarked) [Compound 14, Lup-20 (29)-ene-3,28-bis (N-pyridinium-3-propionate) dichloride] | 21.8 | 3.5 | 22.3 | 20.8 spots per plot | 14.5 | 2.8 | 16.3 | 36.8 | 25.0 | 5.0 | 25.8 | 31.3 | 16.5% | 7.5 | 16.3 | 4.25 | 4.63 | 5.60 | 4.38 | 4.75 | Turf quality [3, 10]: 5.00; Turf quality [3, 12]: 4.88
4 | C=C(C)[C@@H]1CC[C@]2(COC(=O)C[n+]3ccc(N(C)C)cc3)CC[C@]3(C)C(CCC4[C@@]5(C)CC[C@H](OC(=O)C[n+]6ccc(N(C)C)cc6)C(C)(C)C5CC[C@]43C)C12.[Cl-].[Cl-] (some centres unmarked) [Compound 46, Lup-20(29)-ene-3,28-bis[N-(4-dimethylaminopyridinium)acetate] dichloride] | – | – | – | – | – | – | – | – | – | – | – | – | – | – | – | – | – | – | – | – | Turf quality ([4]; Table 5, Jun. 3, 2002): 5.40 ab; Turf quality ([4]; Table 5, Jun. 17, 2002): 4.52 ab; Turf quality ([4]; Table 5, May 27, 2002): 4.00 ab; Turf quality ([4]; Table 6, May 8, 2002): 3.25 a; Turf quality ([4]; Table 6, May 13, 2002): 3.38 a; Turf quality ([4]; Table 6, May 20, 2002): 3.50 a; % of area infected ([5]; Table 5 c2, Jun. 3, 2002): 23.5 a %; % of area infected ([5]; Table 5 c4, Jun. 3, 2002): 24.0 a %; % of area infected ([5]; Table 6, May 8, 2002): 30.5 a %; % of area infected ([5]; Table 6, May 13, 2002): 28.0 a %; % of area infected ([5]; Table 6, May 20, 2002): 25.0 bc %; % of area infected ([5]; Table 6, May 27, 2002): 26.8 bcd %
5 | C=C(C)[C@@H]1CC[C@]2(CO)CC[C@]3(C)C(CCC4[C@@]5(C)CC[C@H](OC(=O)C[N+](C)(C)CCCCCCCCCCCCCC)C(C)(C)C5CC[C@]43C)C12.[Cl-] (some centres unmarked) [Compound 56] | – | – | – | – | – | – | – | – | – | – | – | – | – | – | – | – | – | – | – | – | Turf quality ([4]; Table 5, Jun. 3, 2002): 5.30 ab; Turf quality ([4]; Table 5, Jun. 17, 2002): 5.38 ab; Turf quality ([4]; Table 5, May 27, 2002): 4.47 ab; Turf quality ([4]; Table 6, May 8, 2002): 3.13 a; Turf quality ([4]; Table 6, May 13, 2002): 3.00 a; Turf quality ([4]; Table 6, May 20, 2002): 3.03 ab; % of area infected ([5]; Table 5 c2, Jun. 3, 2002): 22.0 a %; % of area infected ([5]; Table 5 c4, Jun. 3, 2002): 19.3 ab %; % of area infected ([5]; Table 6, May 8, 2002): 31.0 a %; % of area infected ([5]; Table 6, May 13, 2002): 26.5 a %; % of area infected ([5]; Table 6, May 20, 2002): 32.0 bc %; % of area infected ([5]; Table 6, May 27, 2002): 21.8 cd %
